In patent US5972923A, “Methods and compositions to enhance the cytoprotective effects of polycyclic phenolic compounds through the synergistic interaction with anti-oxidants” (priority 1998, dated 1999):
Like-named read-outs stand apart in the source and are kept apart here.

Key:
HT-22 cells [1] = experiment: Effects of estratrienes with and without glutathione on neurotoxicity of βAP 25-35 in HT-22 cells; conditions: for EC50: Mus musculus; for neuroprotection: concurrent treatment with βAP 25-35; for decrease in cell viability: β-AP (25-35)
Experimental: Experiments were initiated by plating cells in Nunc^X 24 well plate cells were allowed to attach for 4 h before treatment. […] After 48 h cells were suspended and viability determined using the trypan blue dye exclusion method (Tennant 1964). Steroids and βAP were prepared as previously described (Green et al. 1996). ED50 values were analyzed by a two way Analysis of Variance. Differences among effects were determined by a Scheffe's post hoc analysis with a p<0.05 considered significant. […] Data are normalized to the βAP free control group as 100% protection and the βAP alone group as 0% protection.

HT-22 cells [2] = experiment: Effects of 17β-estradiol and its BSA conjugate on βAP 25-35 induced toxicity on HT-22 cells (trypan blue); conditions: for Live Cell Number ± SEM: 3.25 μM GSH, 48 h
Experimental: Experiments were initiated by plating cells in Nunc^X 24 well plate and cells were allowed to attach for 4 h before treatment.

SK-N-SH cells [3] = experiment: Live cell number of SK-N-SH cells with βAP 25-35 induced toxicity (trypan blue exclusion), 17β-estradiol and anti-oxidants; conditions: for interaction with estrogen: combination with estrogen
Experimental: The assay utilized the human neuroblastoma cells SK-N-SH.
Materials: Lyophilized βAP 25-35 (1 mg) (Bachem, Torrance, Calif.) was initially dissolved in 200 μl ddH20 and with the addition of 800 μl of PBS, rapid aggregation was observed. […] Lipoic acid (thiotic acid), taurine (2-aminoethanoic acid), and ascorbic acid were initially dissolved in cell culture media and used at the concentrations indicated. Unless otherwise noted, materials were obtained from Sigma Chemical Corp SK-N-SH Neuroblastoma Cell Culture: SK-N-SH neuroblastoma cells were obtained from American Type Tissue Collection (Rockville, Md.). Cell cultures were grown to confluency in RPMI-1640 media (Fisher Scientific, Inc.) supplemented with 10% charcoal/dextran-treated fetal bovine serum (FBS), (Hyclone®), Logan, Utah), 100 U/ml penicillin G and 100 mg/ml streptomycin (Sigma Chemical Corp.) in monolayers in Corning 150 cm^2 flasks (Fisher Scientific, Inc.) at 37° C. under 5% CO2, 95% air. Media was changed three times weekly.
(a) SK-N-SH cells used in the following experiments were in passes 4 to 12. The growth media was initially decanted and the cells were rinsed with 0.02% EDTA for 30 min at 37° C. Cells were then counted on a Neubauer hemacytometer (Fisher Scientific) and resuspended in appropriate media. Studies were initiated by plating 1×10^6 cells per well in 24 well plates, allowing attachment in regular media and then decanting that media and replacing with the appropriate treatment after 4 h.
SK-N-SH cell viability was determined utilizing the trypan blue exclusion method (Black and Berenbaum, 1964; Tennant, 1964). After 72 h of incubation, treatment media was decanted and cells were lifted by incubating with 0.2 ml 0.02% EDTA for 30 min at 37° C. Cells were suspended by repeated pipetting. One-hundred μl aliquots from each cell suspension were incubated with 100 μl aliquots of 0.4 % trypan blue stain for 5 min at room temperature. All suspensions were counted on a Neubauer hemacytometer within 10 min of addition of trypan blue stain. Two independent counts of live and dead cells were made for each aliquot.
Statistics: The significant treatment effects on cell viability were determined using ANOVA followed by Scheffe's post hoc test, with significance determined at p<0.05. For dose-response evaluations, EC50 values were calculated by randomly assigning cell counts at the indicated doses to generate 3-5 lines per treatment and determining the average value for those lines. Mann-Whitney Rank Sum non-parametric analysis were used on EC50 values because the variances for the standard deviation were not equivalent.

[4] = tested on: rat primary cortical neurons; experiment: Neuroprotection against βAP 25-35 in rat primary cortical neurons (LIVE/DEAD kit); conditions: for EC50: Rattus norvegicus, Primary cortical neuron
Experimental: Primary Rat Cortical Culture: Primary neuronal cultures were prepared according to the method used by Chandler et al. Alcoholism: Clinical and Experimental Research, 17 (1993) 54-60.
Once treatments were added, primary cultures were incubated for an additional 24 h and viability determined using the LIVE/DEAD® viability/cytotoxicity kit (Molecular Probes, Eugene, Oreg.) according to manufacturer's instructions. Live cells are distinguished by the presence of intracellular esterase activity which cleaves the calcein AM dye, producing a bright green fluorescence when excited. Ethidium homodimer enters cells with damaged membranes, and upon binding to nucleic acids, produces a red fluorescence. Both dyes are excited at 485 nm, and cultures plates were viewed with a fluorescent microscope (Nikon Diaphot-300). Three random fields were photographed, and the average number of live cells per field was determined by counting the number of bright green cells.

SK-N-SH cells [5] = experiment: Dose response of neuroprotection by GSH or 17β-estradiol against βAP 25-35 in SK-N-SH cells (trypan blue); type: cell-based, human; conditions: for EC50: Homo sapiens, SK-N-SH
Experimental: Media was changed three times weekly.
Cells were suspended by repeated pipetting.
After 72 hours incubation, live cells were determined with Trypan Blue exclusion.
After 72 hours incubation, the cells were stained with Trypan Blue. […] (FIG. 3).

[6] = HT-22, read-out: ED50, absence of GSH
[7] = HT-22, read-out: ED50, presence of GSH
[8] = βAP 25-35 (20 μM) + TRT (anti-oxidant), 72 h
[9] = βAP 25-35 (20 μM) + βE2 + TRT (anti-oxidant), 72 h

With `C[C@]12CC[C@@H]3c4ccc(O)cc4CC[C@H]3[C@@H]1CC[C@H]2O` [α-estradiol, 17 α-estradiol] the EC50 (HT-22 cells [1]; [6]) was 1010 nM, the EC50 (HT-22 cells [1]; [7]) was 6 nM and the neuroprotection (HT-22 cells [1]) was “dose-dependent neuroprotection”. For the same compound, the synergistic effect (HT-22 cells [1]; with GSH, FIG. 5) was “marked synergistic effect”.
In the case of “17β-estradiol-6-(carboxymethyl) oxime: BSA [β17-E2:BSA]”, the “ability to protect HT22 cells from βAP (25-35) toxicity” value (HT-22 cells [2]; BSA conjugate containing 20 μM 17β-estradiol, presence of GSH) is reported as “abolished the ability of the steroid to protect HT22 cells” and the “Live Cell Number ± SEM” value (HT-22 cells [2]; βAP (20 μM) + 20 μM β17-E2:BSA) is reported as 216 ± 17 ×10^3 cells.
`NCCS(=O)(=O)O` [Taurine, 2-aminoethanoic acid] was tested, and the interaction with estrogen (SK-N-SH cells [3]) was “no apparent interactions”, the live cell number (SK-N-SH cells [3]; [8]) was 402 ± 9 and the live cell number (SK-N-SH cells [3]; [9]) was 439 ± 11.
In the case of `C[C@@]12CCC[C@H]1[C@@H]1CCc3cc(O)ccc3[C@H]1CC2` [E-3-ol, estratriene-3-ol], the EC50 (HT-22 cells [1]; [6]) is reported as 3680 nM and the EC50 (HT-22 cells [1]; [7]) is reported as 14 nM.
`CC(=O)Oc1c(C)c(C)c2c(c1C)CCC(C)(CCCC(C)CCCC(C)CCCC(C)C)O2` (stereo not drawn) [Tocopherol, α-tocopherol acetate] was tested, and the interaction with estrogen (SK-N-SH cells [3]) was “no apparent interactions”, the live cell number (SK-N-SH cells [3]; [8]) was 448 ± 12 and the live cell number (SK-N-SH cells [3]; [9]) was 456 ± 14.
“βAP 25-35: neurotoxic β-amyloid protein, a peptide of 10 amino acids (amino acids 25-35) (GSNKGAIIGLM; Amyloid-beta protein 42; UniProt P05067 696-706, looked up, fragment)” was tested, and the “Live Cell Number ± SEM” value (HT-22 cells [2]; βAP (20 μM) alone) was 189 ± 11 ×10^3 cells, the live cell number (SK-N-SH cells [3]; βAP alone, Ascorbic Acid column) was 118 ± 9 and the live cell number (SK-N-SH cells [3]; βAP alone, GSH) was 331 ± 17. For the same compound, the live cell number (SK-N-SH cells [3]; βAP alone, GSSG column) was 331 ± 17, the live cell number (SK-N-SH cells [3]; βAP alone, Lipoic Acid column) was 408 ± 10 and the live cell number (SK-N-SH cells [3]; βAP alone, Taurine column) was 408 ± 10. For the same compound, the live cell number (SK-N-SH cells [3]; βAP alone, Tocopherol column) was 366 ± 24, the “reduction in the average number of viable cells per field” value ([4]; βAP 25-35 (10 μM), absence of GSH, 24 h) was 39% and the cells killed (HT-22 cells [1]; exposure to βAP 25-35) was 50-60%. For the same compound, the “decrease in cell viability” value (HT-22 cells [1]; absence of GSH) was 54±4%.
In the case of `C[C@]12CC[C@@H]3c4ccc(O)cc4CC[C@H]3[C@@H]1CC[C@@H]2O` [17β-estradiol], the neuroprotection (SK-N-SH cells [5]; 200 nM 17β-estradiol, absence of glutathione) is reported as “Neuroprotection was observed”, the EC50 (SK-N-SH cells [5]; 72 h, read-out: ED50 of 17β-estradiol, Aβ 25-35 (20 μM), absence of glutathione, 72 h) is reported as 100 nM and the EC50 (SK-N-SH cells [5]; 72 h, read-out: ED50 of 17β-estradiol, Aβ 25-35 (20 μM), presence of glutathione (3.25 μM), 72 h) is reported as 0.02 nM. It also gave an EC50 (SK-N-SH cells [5]; read-out: EC50 (17β-estradiol dose response, FIG. 3), βAP 25-35 (20 μM), without GSH) of 126 ± 87.8 nM, a live cell number (SK-N-SH cells [3]; βAP + βE2, Ascorbic Acid column) of 144 ± 9 and a live cell number (SK-N-SH cells [3]; βAP + βE2, GSH column) of 357 ± 19. For the same compound, the live cell number (SK-N-SH cells [3]; βAP + βE2, GSSG column) was 357 ± 19, the EC50 ([4]; absence of GSH) was 68.1 ± 79 nM and the EC50 ([4]; presence of GSH) was 4.3 ± 5.9 nM. The neuroprotection (HT-22 cells [1]) was “dose-dependent neuroprotection”.
For `O=C(O)CCCCC1CCSS1` (stereo not drawn) [Lipoic Acid, Lipoic acid], the interaction with estrogen (SK-N-SH cells [3]) was “no apparent interactions”, the live cell number (SK-N-SH cells [3]; [8]) was 406 ± 7 and the live cell number (SK-N-SH cells [3]; [9]) was 416 ± 10.
For `N[C@@H](CCC(=O)N[C@@H](CS)C(=O)NCC(=O)O)C(=O)O` [GSH, glutathione], the “protection from β-AP toxicity” value (SK-N-SH cells [5]; GSH 325 μM) was “significant protection”, the EC50 (SK-N-SH cells [5]; 72 h, read-out: ED50 of glutathione, βAP 25-35 (20 μM), absence of 17β-estradiol, 72 h) was 32500 nM and the EC50 (SK-N-SH cells [5]; 72 h, read-out: ED50 of glutathione, βAP 25-35 (20 μM), presence of 17β-estradiol (2 nM), 72 h) was 325 nM. For the same compound, the EC50 (SK-N-SH cells [5]; read-out: EC50 (GSH dose response, FIG. 2), βAP 25-35 (20 μM), without 17β-estradiol) was 82500 ± 60400 nM, the EC50 (SK-N-SH cells [5]; read-out: EC50 (GSH dose response, FIG. 2), βAP 25-35 + 17β-estradiol (2 nM)) was 41 ± 25 nM and the neuroprotective effect (SK-N-SH cells [5]; glutathione 3.25 μM, absence of 17β-estradiol) was “little neuroprotective effect”. The “fold greater neuroprotectivity than with glutathione alone” value (SK-N-SH cells [5]; with 17β-estradiol (2 nM)) was 1000 fold, the live cell number (SK-N-SH cells [3]; [8]) was 369 ± 7 and the live cell number (SK-N-SH cells [3]; [9]) was 534 ± 16. The “effect on β-AP (25-35) induced toxicity” value (HT-22 cells [1]; dose of GSH used in these studies, by itself) was “no effect” and the “decrease in cell viability” value (HT-22 cells [1]; presence of 3.25 pM GSH (so in the source)) was 55±3%.
For `O=C1O[C@H]([C@@H](O)CO)C(O)=C1O` [Ascorbic Acid, ascorbic acid], the interaction with estrogen (SK-N-SH cells [3]) was “no apparent interactions”, the live cell number (SK-N-SH cells [3]; [8]) was 124 ± 6 and the live cell number (SK-N-SH cells [3]; [9]) was 188 ± 11.
